Laboratory results taken from patent US12358915B2, “METTL3 inhibitory compounds” (STORM THERAPEUTICS LTD., priority 2019, dated 2025).
Like-named read-outs stand apart in the source and are kept apart here.

Molecular target: T1, METTL3/14 (Homo sapiens, UniProt Q86U44)
T1 construct: The enzyme used was full-length his-tagged METTL3; His; made in house
Test: METTL3/14 methyltransferase assay (METTL3_14 RFMS, RapidFire mass spectrometry);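 further: recombinant His-tagged METTL3 with FLAG-tagged METTL14 from baculovirus, SAH product quantified by mass spectrometry against isotope-labelled internal standards, 60 min at room temperature, scaled between no-RNA and DMSO-only wells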
Assay type: biochemical

[1] = 5 nM METTL3/14, 0.2 μM RNA substrate, 0.5 μM SAM, lower limit of the assay IC50=5 nM, Compounds 1-62, read-out: METTL3_14 RFMS IC50

T1 sequence (Q86U44 whole entry): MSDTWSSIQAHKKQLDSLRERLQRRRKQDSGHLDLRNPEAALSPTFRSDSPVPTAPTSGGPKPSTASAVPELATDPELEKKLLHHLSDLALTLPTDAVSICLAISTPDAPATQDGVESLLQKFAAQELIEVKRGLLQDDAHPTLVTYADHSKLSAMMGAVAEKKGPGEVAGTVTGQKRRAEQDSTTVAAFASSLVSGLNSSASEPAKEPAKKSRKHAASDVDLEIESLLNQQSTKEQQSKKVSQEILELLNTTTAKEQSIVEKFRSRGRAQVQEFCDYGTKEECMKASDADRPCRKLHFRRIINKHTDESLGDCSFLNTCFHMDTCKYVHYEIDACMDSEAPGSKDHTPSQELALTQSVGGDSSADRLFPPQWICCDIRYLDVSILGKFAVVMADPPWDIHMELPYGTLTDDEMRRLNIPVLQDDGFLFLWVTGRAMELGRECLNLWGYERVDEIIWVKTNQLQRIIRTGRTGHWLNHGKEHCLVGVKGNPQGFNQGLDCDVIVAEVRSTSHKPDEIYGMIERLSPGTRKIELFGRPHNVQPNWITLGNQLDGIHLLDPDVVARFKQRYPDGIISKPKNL
T1 sequence (Q9HCE5 whole entry partner): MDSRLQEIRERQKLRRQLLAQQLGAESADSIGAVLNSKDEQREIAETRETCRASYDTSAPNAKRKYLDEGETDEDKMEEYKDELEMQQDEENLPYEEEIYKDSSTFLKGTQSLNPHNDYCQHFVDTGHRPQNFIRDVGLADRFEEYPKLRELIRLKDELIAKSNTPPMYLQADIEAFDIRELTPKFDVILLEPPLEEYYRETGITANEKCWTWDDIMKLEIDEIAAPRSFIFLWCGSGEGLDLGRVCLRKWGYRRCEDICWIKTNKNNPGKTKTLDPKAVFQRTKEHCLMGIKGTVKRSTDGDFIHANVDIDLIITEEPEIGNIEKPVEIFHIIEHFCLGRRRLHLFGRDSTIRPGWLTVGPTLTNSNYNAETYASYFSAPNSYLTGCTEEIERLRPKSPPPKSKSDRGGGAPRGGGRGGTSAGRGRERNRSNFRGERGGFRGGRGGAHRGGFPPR

| SMILES | IC50 [1] [µM] | further results |
| --- | --- | --- |
| O=C(NCc1cn2cc([C@H]3COC[C@@H](C4CCCCC4)N3)ccc2n1)c1cccc2[nH]ncc12 (racemic) [Example 231, N-({6-[(3S,5R)-5-cyclohexylmorpholin-3-yl]imidazo[1,2-a]pyridin-2-yl}methyl)-1H-indazole-4-carboxamide] | – | IC50 (read-out: METTL3_14 RFMS IC50): 1.22 µM |
| O=C(NCc1cn2ccc(Br)cc2n1)c1cccc2[nH]ncc12 [Compound 2, N-({7-bromoimidazo[1,2-a]pyridin-2-yl}methyl)-1H-indazole-4-carboxamide] | 9.84 | – |
| O=C(NCc1cn2cc(Br)ccc2n1)c1cccc2[nH]ncc12 [Compound 3, N-({6-bromoimidazo[1,2-a]pyridin-2-yl}methyl)-1H-indazole-4-carboxamide] | 4.66 | – |
| O=C(NCc1cn2cc(Cl)ccc2n1)c1cccc2[nH]ncc12 [Compound 4, N-({6-chloroimidazo[1,2-a]pyridin-2-yl}methyl)-1H-indazole-4-carboxamide] | 6.07 | – |
| O=C(NCc1cn2ccc(F)cc2n1)c1cccc2[nH]ncc12 [Compound 5, N-({7-fluoroimidazo[1,2-a]pyridin-2-yl}methyl)-1H-indazole-4-carboxamide] | 9.45 | – |
| O=C(NCc1cn2cc(F)ccc2n1)c1cccc2[nH]ncc12 [Compound 6, N-({6-fluoroimidazo[1,2-a]pyridin-2-yl}methyl)-1H-indazole-4-carboxamide] | 9.12 | – |
| COc1ccn2cc(CNC(=O)c3cccc4[nH]ncc34)nc2c1 [Compound 7, N-({7-methoxyimidazo[1,2-a]pyridin-2-yl}methyl)-1H-indazole-4-carboxamide] | 2.67 | – |
| Cc1ccc2nc(CNC(=O)c3cc(-c4ccn[nH]4)cc4[nH]ncc34)cn2c1 [Compound 8, N-({6-methylimidazo[1,2-a]pyridin-2-yl}methyl)-6-(1H-pyrazol-5-yl)-1H-indazole-4-carboxamide] | 4.56 | – |
| Cc1ccc2nc(CNC(=O)c3cc(Br)cc4[nH]ncc34)cn2c1 [Compound 10, 6-bromo-N-({6-methylimidazo[1,2-a]pyridin-2-yl}methyl)-1H-indazole-4-carboxamide] | 1.61 | – |
| Cc1ccn2cc(CNC(=O)c3cc(Br)cc4[nH]ncc34)nc2c1 [Compound 11, 6-bromo-N-({7-methylimidazo[1,2-a]pyridin-2-yl}methyl)-1H-indazole-4-carboxamide] | 4.1 | – |
| Cc1ccc2nc(CNC(=O)c3cc(=O)c4ccccc4o3)cn2c1 [Compound 12, N-({6-methylimidazo[1,2-a]pyridin-2-yl}methyl)-4-oxo-4H-chromene-2-carboxamide] | 1.41 | – |
| O=C(NCc1cn2ccccc2n1)c1cc(=O)c2ccccc2o1 [Compound 13] | 4.18 | – |
| C#Cc1cc(C(=O)NCc2cn3cc(C)ccc3n2)c2cn[nH]c2c1 [Compound 14, 6-ethynyl-N-({6-methylimidazo[1,2-a]pyridin-2-yl}methyl)-1H-indazole-4-carboxamide] | – | IC50 (read-out: METTL3_14 RFMS IC50): 5.9 µM |
| Cc1ccc2nc(CNC(=O)c3cc(=O)n4ccccc4n3)cn2c1 [Compound 15, N-({6-methylimidazo[1,2-a]pyridin-2-yl}methyl)-4-oxo-4H-pyrido[1,2-a]pyrimidine-2-carboxamide] | 0.536 | IC50 (primary enzyme screen, inhibition of RNA methyltransferase activity, lower limit of the assay is IC50=5 nM, read-out: IC50): 0.52 µM |
| Cc1ccn2cc(CNC(=O)c3cc(=O)n4ccccc4n3)nc2c1 [Compound 17, N-({7-methylimidazo[1,2-a]pyridin-2-yl}methyl)-4-oxo-4H-pyrido[1,2-a]pyrimidine-2-carboxamide] | 2.24 | – |
| N#Cc1ccc2nc(CNC(=O)c3cc(=O)n4ccccc4n3)cn2c1 [Compound 18, N-({6-cyanoimidazo[1,2-a]pyridin-2-yl}methyl)-4-oxo-4H-pyrido[1,2-a]pyrimidine-2-carboxamide] | 1.86 | – |

| SMILES | IC50 [1] [µM] | further results |
| --- | --- | --- |
| COc1ccn2c(=O)cc(C(=O)NCc3cn4cc(C)ccc4n3)nc2c1 [Compound 19, 8-methoxy-N-({6-methylimidazo[1,2-a]pyridin-2-yl}methyl)-4-oxo-4H-pyrido[1,2-a]pyrimidine-2-carboxamide] | 2.6 | – |
| Cc1ccc2nc(CNC(=O)c3ccc4[nH]ncc4c3)cn2c1 [Compound 20, N-({6-methylimidazo[1,2-a]pyridin-2-yl}methyl)-1H-indazole-5-carboxamide] | 8.41 | – |
| Cc1ccc2nc(CNC(=O)c3cc(=O)n4cc(Cl)ccc4n3)cn2c1 [Compound 21, 7-chloro-N-({6-methylimidazo[1,2-a]pyridin-2-yl}methyl)-4-oxo-4H-pyrido[1,2-a]pyrimidine-2-carboxamide] | 3.06 | – |
| O=C(NCc1cn2cc(F)ccc2n1)c1cc(=O)n2ccccc2n1 [Compound 22, N-({6-fluoroimidazo[1,2-a]pyridin-2-yl}methyl)-4-oxo-4H-pyrido[1,2-a]pyrimidine-2-carboxamide] | 2.21 | – |
| O=C(NCc1cn2cc(Br)ccc2n1)c1cc(=O)n2ccccc2n1 [Compound 23, N-({6-bromoimidazo[1,2-a]pyridin-2-yl}methyl)-4-oxo-4H-pyrido[1,2-a]pyrimidine-2-carboxamide] | 1.79 | – |
| COc1ccc2nc(CNC(=O)c3cc(=O)n4ccccc4n3)cn2c1 [Compound 24, N-({6-methoxyimidazo[1,2-a]pyridin-2-yl}methyl)-4-oxo-4H-pyrido[1,2-a]pyrimidine-2-carboxamide] | 6.77 | – |
| COc1ccn2cc(CNC(=O)c3cc(=O)n4ccccc4n3)nc2c1 [Compound 25, N-({7-methoxyimidazo[1,2-a]pyridin-2-yl}methyl)-4-oxo-4H-pyrido[1,2-a]pyrimidine-2-carboxamide] | 0.543 | – |
| O=C(NCc1cn2ccccc2n1)c1cc(=O)n2ccccc2n1 [Compound 26] | 2.06 | – |
| Cc1cccn2cc(CNC(=O)c3cc(=O)n4ccccc4n3)nc12 [Compound 27, N-({8-methylimidazo[1,2-a]pyridin-2-yl}methyl)-4-oxo-4H-pyrido[1,2-a]pyrimidine-2-carboxamide] | 6.61 | – |
| O=C(NCc1cn2ccc(Br)cc2n1)c1cc(=O)n2ccccc2n1 [Compound 29, N-({7-bromoimidazo[1,2-a]pyridin-2-yl}methyl)-4-oxo-4H-pyrido[1,2-a]pyrimidine-2-carboxamide] | 2.78 | – |
| Cc1ccc2nc(C(CO)NC(=O)c3cccc4[nH]ncc34)cn2c1 (centres unmarked) [Compound 30, N-(2-hydroxy-1-{6-methylimidazo[1,2-a]pyridin-2-yl}ethyl)-1H-indazole-4-carboxamide] | 8.52 | – |
| O=C(c1cccc2[nH]ncc12)N1CC=C(c2cn3ccccc3n2)C1 [Compound 31, 4-(3-{imidazo[1,2-a]pyridin-2-yl}-2,5-dihydro-1H-pyrrole-1-carbonyl)-1H-indazole] | 9.35 | – |
| O=C(NCc1cn2cc(NCc3cccnc3)ccc2n1)c1cccc2[nH]ncc12 [Compound 32, N-[(6-{[(pyridin-3-yl)methyl]amino}imidazo[1,2-a]pyridin-2-yl)methyl]-1H-indazole-4-carboxamide] | 7.34 | – |
| Cn1cnc(CNc2ccc3nc(CNC(=O)c4cccc5[nH]ncc45)cn3c2)c1 [Compound 33, N-[(6-{[(1-methyl-1H-imidazol-4-yl)methyl]amino}imidazo[1,2a]pyridin-2-yl)methyl]-1H-indazole-4-carboxamide] | 5.87 | – |
| COc1cccc(-c2ccc3nc(CNC(=O)c4cccc5[nH]ncc45)cn3c2)c1 [Compound 34, N-{[6-(3-methoxyphenyl)imidazo[1,2-a]pyridin-2-yl]methyl}-1H-indazole-4-carboxamide] | 5.35 | – |
